Measured values reported in the OPERA property sets (Mansouri et al. 2018).
Where a SMILES comes first, the peptide text is derived from it. [ ]: non-standard residue; d: D form. The star is where a group is joined. Orn = NCCC[CH](N)C(=O)O; NHtBu = CC(C)(C)N*

| Structure (SMILES) | logP |
| --- | --- |
| CCC1COC(Cn2cncn2)(c2ccc(-n3cncn3)cc2Cl)O1 (stereo not given) | 1.28 |
| CCN(C=Nc1ccn(C2CC(O)C(CO)O2)c(=O)n1)CC (stereo not given) | -0.59 |
| CCCOc1ccc(NC(=O)OCCN2CCOCC2)cc1 | 2.78 |
| CCCCCCOc1ccccc1NC(=O)OCCN1CCOCC1 | 4.24 |
| CC(=O)NC(Cc1ccccc1)C(=O)NC(CC(=O)O)C(=O)NC(CC(C)C)C(N)=O (stereo not drawn) (Ac-Phe-Asp-Leu-NH2; configuration not given here) | 0.39 |
| CCOC(=O)COC(=O)c1cc(Oc2ccc(C(F)(F)F)cc2Cl)ccc1[N+](=O)[O-] | 3.65 |
| CNC(=NC#N)NCCSCc1ncn(COC(=O)C(C)(C)C)c1C | 1.81 |
| CCOC(=O)Cn1cnc([N+](=O)[O-])c1I | 0.57 |
| Nc1nc(N)nc(C(Cl)(Cl)Cl)n1 | 1.24 |
| CCCN1C(=O)NC(=O)C(=O)C1=O | 0.28 |
| CCN(CC)Cc1cccc(C(=O)Nc2c(C)cccc2C)c1 | 3.09 |
| Clc1ccc(Cl)c(-c2ccc(Cl)c(Cl)c2Cl)c1 | 6.85 |
| Cc1ncc([N+](=O)[O-])n1CCOC(=O)N(C)C | 0.47 |
| CC(=O)OC1C(=O)C2(C)C(O)CC3OCC3(OC(C)=O)C2C(OC(=O)c2ccccc2)C2(O)CC(OC(=O)C(O)CNC(=O)c3ccccc3)C(C)=C1C2(C)C (stereo not given) | 1.75 |
| NC(COCc1cccnc1)C(=O)O (stereo not given) | -2.44 |
| S=C(N/N=C/c1ccc[nH]1)Nc1ccccc1 | 3.73 |
| OCCOc1ccccc1Cl | 1.81 |
| O=C(CCn1cnc([N+](=O)[O-])n1)NCCO | -1.32 |
| C1CCC2=NCCCN2CC1 | 1.38 |
| CC(=O)OC(C(=O)NC1C(=O)N2C(C(=O)O)=C(C)CSC12)c1ccccc1 (stereo not given) | 1.02 |
| CCOc1cccc(NC(=O)OCCN2CCOCC2)c1 | 2.5 |
| COC(C)(C(=O)O)c1ccccc1 (stereo not given) | 1.64 |

| Structure (SMILES) | logP |
| --- | --- |
| COC1CC(OC2CCC3(C)C(CCC4C3CCC3(C)C(C5=CC(=O)OC5)C(OC(C)=O)CC43OC(C)=O)C2)OC(C)C1O (stereo not given) | 2.95 |
| O=[N+]([O-])c1ccc2ccc3cccc4ccc1c2c34 | 5.06 |
| NS(=O)(=O)c1cc(C(=O)O)cc(N2CCCC2)c1Oc1ccccc1 | 3.92 |
| COc1ccc(C(=O)NP(=O)(N2CC2)N2CC2)cc1 | 1.08 |
| Clc1cc(-c2cc(Cl)c(Cl)c(Cl)c2Cl)c(Cl)c(Cl)c1Cl | 8.68 |
| Cc1n[nH]c(C(=O)NC2CCCCC2)c1[N+](=O)[O-] | 1.71 |
| CC(=O)NC(CCCN)C(=O)NC(CC(C)C)C(N)=O (stereo not given) (Ac-[Orn]-Leu-NH2; configuration not given here) | -0.71 |
| O=[N+]([O-])c1nccn1COC(CO)C(O)CO (stereo not given) | -1.47 |
| O=C(c1c[nH]c2ccccc12)C(F)(F)F | 3.44 |
| O=C(O)CCCCC(S)CCS (stereo not given) | 2.41 |
| O=C(O)C[N+]1([O-])CCN(C(=O)Cn2c(=O)sc3ccc(Cl)cc32)CC1 | 0.21 |
| C#CCOc1c(Cl)cc(NC=NOC(C)C)cc1Cl | 3.9 |
| CC(=O)Nc1ncnc2c1ncn2C1CC(O)C(CO)O1 (stereo not given) | -0.19 |
| O=c1nc(N=CN2CCCCC2)ccn1C1OC(CO)C(O)C1O (stereo not given) | -0.66 |
| CCC(C)C(NC(=O)C(CCCN)NC(C)=O)C(=O)NC(C(N)=O)C(C)C (stereo not drawn) (Ac-[Orn]-Ile-Val-NH2; configuration not given here) | -0.43 |
| CCCCCC1CC(C(=O)NC(C(C)O)C2OC(SC)C(O)C(O)C2O)N(C)C1 (stereo not given) | 0.93 |
| CCC1COC(Cn2cncn2)(c2ccc([N+](=O)[O-])cc2)O1 (stereo not given) | 1.52 |
| CC(=O)c1c(C)n(C)c2ccccc12 | 2.03 |
| CC(C)CCNC(=O)C1(O)C(C)CC2C3CCC4=CC(=O)C=CC4(C)C3(F)C(O)CC21C (stereo not given) | 3.74 |
| CCOC(=O)C(NC(=O)CCCCSc1[nH]cnc2ncnc1-2)c1ccccc1 (stereo not given) | 1.13 |
| Cc1nc2sccn2c(=O)c1CCN1CCC(=C(c2ccc(F)cc2)c2ccc(F)cc2)CC1 | 5.2 |
| Nc1ccn(C2OC3COC2C3O)c(=O)n1 (stereo not given) | -1.64 |

| Structure (SMILES) | logP |
| --- | --- |
| FC(F)(F)C(F)(F)c1ccccc1 | 3.36 |
| CN1C(=O)CN=C(c2ccccc2Cl)c2cc([N+](=O)[O-])ccc21 | 2.56 |
| CC(C)(C)C(=O)C(C#N)=NNc1cc(C(F)(F)F)ccc1Cl | 5.31 |
| CC(C)CN1C(=O)NC(=O)C(=O)C1=O | 0.76 |
| O=[N+]([O-])c1nccn1COC(CO)CO | -1.17 |
| OCCOc1ccc(Cl)cc1 | 1.99 |
| CCC(C)C(=O)OC1CCC=C2C=CC(C)C(CCC(O)CC(O)CC(=O)O)C21 (stereo not given) | 3.6 |
| CCCCOc1ccc(OCC(OC(=O)n2ccnc2)C(C)(C)C)cc1 (stereo not given) | 4.29 |
| CC(=O)NC(C)C(=O)NC(CCC(=O)O)C(=O)NC(C)C(=O)NC(C)(C)C (stereo not drawn) (Ac-Ala-Glu-Ala-NHtBu; configuration not given here) | -0.67 |
| CCCOC(=O)C(C(=O)OC)=C1SC=CS1 | 2.72 |
| N#CC(C#N)=NNc1ccccc1Cl | 3.12 |
| COc1ccc2c(C)cc(=O)n3c(C)cc1c23 | 2.84 |
| CCCn1c(=O)c2nc(-c3ccccc3N)[nH]c2n(CCC)c1=O | 3.54 |
| O=[N+]([O-])c1cnc(C=Cc2ccccc2)n1CCO | 2.25 |
| O=C(O)c1ccccc1N1C(=O)CCC1=O | 1.55 |
| Cc1ccc(Cl)c(Cl)c1 | 3.95 |
| CCCCC(NC(Cc1ccccc1)C(=O)N1CCC(OCOC)CC1)C(=O)NC(CC1CCCCC1)C(O)CC(C(=O)NCCCNCCO)C(C)C (stereo not given) | 3.5 |
| CC1CN(c2cc3c(cc2F)c(=O)c(C(=O)O)cn3-c2ccc(F)cc2F)CCN1 (stereo not given) | -0.2 |
| Cc1ccccc1NN=C(C#N)C#N | 2.38 |
| CCCCC(=O)OC(C(=O)NC1C(=O)N2C(C(=O)O)=C(C)CSC12)c1ccccc1 (stereo not given) | 2.23 |
| CCOC(=O)c1cc(S(N)(=O)=O)c(Cl)cc1NCc1ccco1 | 2.67 |
| Cc1cc(Cl)c(Cl)cc1Cl | 4.56 |

| Structure (SMILES) | logP |
| --- | --- |
| O=S(=O)(NCc1ccccc1)C(F)(F)F | 2.91 |
| CC(=O)N[C@@H](Cc1c[nH]c2ccccc12)C(=O)N[C@@H](C)C(=O)N[C@@H](C)C(N)=O (Ac-Trp-Ala-Ala-NH2) | -0.38 |
| CN1C(=O)C(=O)c2ccccc2C1=O | 0.6 |
| Cn1c([N+](=O)[O-])cnc1C(N)=O | 0.29 |
| O=[N+]([O-])C=C1NCCCN1Cc1ccc(Cl)nc1 | -0.62 |
| Nc1ccccc1S(N)(=O)=O | 0.22 |
| CCCC(C)C(=O)OCC1CCC(n2cnc3c(=O)[nH]cnc32)O1 (stereo not given) | 1 |
| COc1ccc(OC)c(Cc2cnc(N)nc2N)c1 | 1.7 |
| O=[N+]([O-])c1ncn(CC(F)(F)CO)n1 | -0.21 |
| Cc1ccc(C(=O)COc2c(C(=O)c3ccc(Cl)c(C)c3Cl)c(C)nn2C)cc1 | 4.69 |
| CCCCOc1ccc(NC(=O)OCCN2CCOCC2)cc1 | 3.35 |
| Cc1[nH]cnc1CSCCNC1=NC(=O)CN1 | -0.5 |
| CC(=O)OC1CC(OC2CCC3(C)C(CCC4C3CC(O)C3(C)C(C5=CC(=O)OC5)CCC43O)C2)OC(C)C1OC1CC(O)C(OC2CC(O)C(O)C(C)O2)C(C)O1 (stereo not given) | 1.71 |
| COc1ccccc1OCc1ccccc1CCCN1CCC(O)CC1 | 2.82 |
| CC1CC2C3CCC4=CC(=O)C=CC4(C)C3(F)C(O)CC2(C)C1(O)C(=O)NCCCl (stereo not given) | 2.73 |
| CC1CSC2C(NC(=O)C(O)c3ccccc3)C(=O)N2C1C(=O)O (stereo not given) | 0.47 |
| CCOC(=O)c1ccc(OCC(OC(=S)n2ccnc2)C(C)(C)C)cc1 (stereo not given) | 4.77 |
| Clc1ccc(-c2c(Cl)c(Cl)c(Cl)c(Cl)c2Cl)cc1 | 7.31 |
| Clc1cc(Cl)cc(-c2cccc(Cl)c2Cl)c1 | 6.17 |
